From patent publication US20030119733A1, “Compositions and methods for inhibiting hepatocyte invasion by malarial sporozoites” (New York University, priority 1992, published 2003)
“Also recorded” adds a separate entry of the source. Where no end group is shown, it is not given here. The star is where a group is joined. Cam = NC(=O)C*

Tests used:
[1] = system: binding of CS27IVC to liver sections; experiment: Peptide inhibition of CS27IVC binding to frozen liver sections; design: species or system rat; conditions: peptide preincubation, up to 500 μg/ml
Protocol: The procedure was carried out essentially as described by Dukor P. et al., Proc. Natl. Acad. Sci. USA 67:991-997, 1970 and Imai Y. et al., J. Cell. Biol. 111:1225-1232, 1990. Rats were euthanized with CO2. Small pieces of the liver, spleen, heart, brain and lung were removed, snap frozen in liquid nitrogen, embedded in Tissue Tek O.C.T. (Miles, Inc., Naperville, Ill.), and cut into 5 μm sections. Sections were dried for 30 min., fixed for 10 min. in 4% paraformaldehyde, rinsed three times with phosphate-buffered saline (PBS), and either used immediately or stored at 4° C. in 1% BSA, 0.5% Tween, PBS (BSA/TPBS). After blocking with 100 mM glycine (pH 7.2) and with BSA/TPBS, the sections were sequentially incubated at 37° C. with recombinant proteins for 1 hr, 10 μg/ml MAb 2A10 for 45 min., and rat anti-mouse immunoglobulin conjugated to fluorescein isothiocyanate (Boehringer Mannheim, Indianapolis, Ind.) for 45 min. The slides were counterstained for 10 min. with 0.3% Evans blue, rinsed extensively in PBS, and finally observed under a fluorescence microscope. For peptide inhibition experiments, the sections were first incubated with the peptide at various concentrations in BSA/TPBS for 1 hour at 37° C., washed six times with BSA/TPBS, and then stained with 2.5 μg/ml CS recombinant protein as described above. In a few experiments, the tissues were fixed for 10 min. with methanol, acetone, or 4% paraformaldehyde containing 0.5% glutaraldehyde.

[2] = system: binding of CSFZ (Cys) to HepG2 cells; experiment: Peptide inhibition of CSFZ (Cys) binding to HepG2 cells; design: species or system human; conditions: peptides 0-250 μg/ml
Protocol: For indirect immunofluorescence, HepG2 cells (ATCC number HB8065, Rockville, Md.; Knowles, B. P., et al., Science 209:497-499, 1980) were grown on slides (Cel-Line Associates, Inc., Newfield, N.J.) overnight in minimum essential medium with 10% fetal calf serum (FCS-MEM; GIBCO, Grand Island, N.Y.), 1 mM L-glutamine (GIBCO), 3 mg/ml glucose (Sigma), 1×nonessential amino acids (GIBCO), 50 μg/ml penicillin, and 100 μg/ml streptomycin (GIBCO). For the enzyme-linked immunosorbent assay, 10^5 HepG2 cells were deposited in 96-well Falcon tissue culture plates (Becton Dickinson, Oxnard, Calif.) and grown for 24 hr. in FCS-MEM. The cells were fixed with 4% paraformaldehyde, washed three times with PBS, and stored at 4° C. in BSA/TPBS until use. Before the experiments, plates were blocked for 2 hr. at 37° C. with 1% gelatin, 0.05% Tween in PBS (pH 7.4) (gelatin/TPBS). The cells were sequentially incubated at 37° C. with 50 μl of recombinant protein diluted in gelatin/TPBS for 1 hr. MAb 2A10 at a concentration of 10 μg/ml for 30 min. and goat anti-mouse immunoglobulin conjugated to alkaline phosphatase (Boehringer Mannheim) for 30 min. […] After 15 min., fluorescence was read in a Fluoroskan II plate reader (Flow Lab Inc., McLean, Va.) with excitation filter 350 nm and emission filter 460 nm. In the peptide inhibition experiments, wells were first incubated for 1 hr. at 37° C. with peptides diluted in gelatin/TPBS, washed three times with gelatin/TPBS, and then incubated with recombinant CSFZ (Cys) at a concentration of 2.5 μg/ml for 1 hr. at 37° C.
The same assay system was used to evaluate the ability of the various synthetic peptides to inhibit the binding of CSFZ (Cys) to the HepG2 cells. Paraformaldehyde-fixed immobilized HepG2 cells were pre-incubated with peptides at concentrations between 0 and 250 μg/ml, washed, and incubated with CSFZ (Cys) at 2.5 μg/ml. After washing, the cells were incubated with MAb 2A10 followed by anti-mouse IgG conjugated to alkaline phosphatase. […] Each peptide concentration was assayed in triplicate wells and the means of the fluorescent reading were calculated. […] The cysteines and the sulfhydryl groups were necessary for inhibition (Pf1A, Pf1B and Pf2A were not active). […] The results are shown graphically in FIG. 7 wherein percent inhibition (after subtraction of background) is plotted as a function of peptide concentration. Pf1: open circles; Pf2: dark circles; Pf3: open upright triangles; Pf1A dark square; Pf1B open inverted triangles; Pf2A dark triangle; Pf70 open diamond; Pf25C dark diamond. Standard deviations were no greater than ±5% of the plotted mean.

[3] = system: Vivax-2 binding to sulfatide; experiment: Inhibition of binding of Vivax-2 to sulfatide; design: species or system P. vivax; conditions: for effect on binding to sulfatide: 1 mg/ml
Protocol: (§1) Solid phase binding assays: Thirty μl of lipids or steroids dissolved in methanol (20-250 μg/ml) were dried into wells of microassay plates (Cat.# 3911—Falcon—Oxnard, Calif.). The plates were then blocked with 1% BSA/PBS pH 7.4 (BSA/PBS) for 30 minutes. Wells were incubated with recombinant protein (or with parasite extract) in PBS/BSA for 1 hour, washed 3 times with BSA/PBS, incubated for 1 hour with monoclonal antibodies 2F2 or 2A10 in BSA/PBS, washed 3 times, and then incubated with (10^5 cpm/well) ^125I protein A (Amersham Corp., Arlington Hts., Ill.). In the case of the P. berghei CS protein, wells were incubated with ^125I labelled mAb 3D11. Wells were washed again and the bound radioactive protein was counted in an LKB gamma-counter (model #1260, Pharmacia, Inc., Gaithersburg, Md.). For inhibition assays, the recombinant proteins were mixed with dilutions of the various polymers in BSA/PBS, the mixture was loaded into the wells of the microtiter plates, and the binding assay performed as above. See also, Roberts, et al. J. Biol. Chem. 260:9405-9411, 1985.

[4] = system: Vivax-2 binding to cholesterol-sulfate; experiment: Inhibition of binding of Vivax-2 to cholesterol-sulfate; design: species or system P. vivax
Protocol: as §1

[5] = system: P. berghei sporozoites; experiment: Infection assay of HepG2 cells with polymers; format: cell-based
Protocol: Infection assay: Semiconfluent monolayers of HepG2 cells were grown in 10% FCS/MEM on 8 chamber slides (#4808 Lab-tek -Naperville, Ill.) for 24 hours prior to each experiment. Sporozoites were pre-incubated in media alone or with the various polymers for 15 minutes at 4° C. 5×10^4 sporozoites, in a volume of 10 μl, were added per chamber. After 4 hours of incubation at 37° C., the medium containing the sporozoites was gently aspirated, and 0.5 ml MEM/10% FCS was added. Fresh medium was added at 18 hours and 28 hours, and then cells were fixed with methanol containing 0.3% H2O2 at 48 hours. After fixation, the wells were blocked with 10% FCS/PBS and were incubated with 10 μg/ml of mAb 2E6. Binding of the mAb was detected with a polyclonal goat anti-mouse Ig conjugated to horseradish peroxidase. […] The parasites in each well are counted under a 40× light microscope objective.
The cells were fixed and stained with mAb 2E6, followed by goat-anti-mouse linked to horseradish peroxidase. Numbers represent schizonts counted/20 fields under 40× magnification in a light microscope.

| Substance | inhibition of the binding of CS27IVC to liver sections [1] | inhibition of CSFZ (Cys) binding to HepG2 cells [2] | effect on binding to sulfatide [3] | % INHIBITION ([3]; inhibitor 1 mg/ml) | % INHIBITION ([4]; inhibitor 10 mg/ml) | also measured |
| --- | --- | --- | --- | --- | --- | --- |
| AGNGIQVRIKPGSANKPKDE [Pf2A, Identical to Pf2 except the first cysteine has been replaced by an alanine residue] | failed to inhibit | not active |  |  |  |  |
| CGNGIQVRIKPGSANKPKDE [Pf2] | inhibited the binding of CS27IVC | inhibited the CSFZ (Cys) binding; also recorded: competes much less effectively |  |  |  |  |
| KPKHKKLKQPADGNPDPNAN [Pf70] | failed to inhibit | no inhibitory effect |  |  |  |  |
| PASVTAGNGIQVRIKPGSAN [Pf1A, Identical to Pf1 except alanine residues are substituted for the two cysteines] | failed to inhibit | not active |  |  |  |  |
| PCSVTCGNGIQVRIKPGSAN [Pf1] | inhibited the binding of CS27IVC | inhibited the CSFZ (Cys) binding; also recorded: competes very effectively |  |  |  |  |
| PGSANKPKDELDYANDIEKK [Pf3, Contains only a C-proximal moiety of Region II+] | failed to inhibit; also recorded: No inhibition of binding |  |  |  |  |  |
| PXSVTXGNGIQVRIKPGSAN (PC(Cam)SVTC(Cam)GNGIQVRIKPGSAN) [Pf1B] | failed to inhibit | not active |  |  |  |  |
| chondroitin-sulfate A [CHONDROITIN SULFATE-A] |  |  | no effect | 0% | 16% | % INHIBITION ([4]; inhibitor 1 mg/ml): 0%; PARASITE # (exoerythrocytic liver stages in 20 microscope fields, duplicate) ([5]; inhibitor 5 μg/ml present during invasion): 250; effect on sporozoite invasion ([5]; present during invasion, 5-50 μg/ml): no effect |
| chondroitin-sulfate B [CHONDROITIN SULFATE-B] |  |  | only slightly inhibitory | 34.3% |  | % INHIBITION ([3]; inhibitor 100 μg/ml): 22.3%; % INHIBITION ([4]; inhibitor 0 mg/ml (so in the source)): 51%; % INHIBITION ([4]; inhibitor 100 μg/ml): 0%; % INHIBITION ([4]; inhibitor 1 mg/ml): 27% |
| chondroitin-sulfate C [CHONDROITIN SULFATE-C] |  |  | no effect | 0% | 0% |  |
| dermatan sulfate |  |  | no effect |  |  |  |
| hyaluronic acid |  |  | no effect | 0% | 28% | % INHIBITION ([4]; inhibitor 1 mg/ml): 0% |
| keratan-sulfate |  |  | no effect | 37% | 0% |  |
